# From patent publication US11530213B2, “Naphthyridinone derivatives and their use in the treatment of arrhythmia” (NOVARTIS AG, priority 2016, dated 2022)
# Molecular target: GIRK1/4 (Homo sapiens (Human), UniProt P48544+P48549)
# Assay: GIRK1/4 inhibition, Quattro (IonWorks) population patch clamp, inward potassium current in GIRK 1/4 HEK293 stable cells (test assay No. 1)
# Type: cell-based
# Conditions: percentage of current inhibition normalized to DMSO-only control
# Method: The activity of a compound according to the present invention can be assessed by the following in vitro method. • 1. Buffers: • a. External buffer: 10 mM NaCl, 50 mM Na Gluconate, 80 mM K Gluconate, 1.8 mM CaCl2, 1 mM MgCl2, 10 mM HEPES, 10 mM Glucose, pH 7.4; osmolality […]. • b. Internal buffer: 30 mM KCl, 100 mM K Gluconate, 1 mM MgCl2, 10 mM HEPES, 1 mM EGTA, 10 mM NaCl, pH 7.2; osmolality […]. • 2. Compounds: • a. Prepare seven-fold compound dilution series (10 mM to 20 uM) in 100% DMSO, in 384-well polypropylene plates. • b. Propafenone (Sigma Aldrich, catalog number P4670) is used as a positive control and DMSO for neutral control • c. Resuspend 1 ul of compounds in DMSO into 65.7 ul external buffer in 384-well polypropylene plate and load into Plate 1 section of Molecular Devices Quattro • 3. Quattro setup: • a. Load 384-well Population Patch Plate (Molecular Devices #9000-0902) into Quattro • b. Fill Quattro F-soak trough with 20% DMSO and 50% EtOH • c. Fill Quattro buffer trough with external buffer • d. Attach internal buffer flask to Quattro internal buffer tubing • e. Attach PBS (Phosphate Buffered Saline, minus Ca^++ and Mg^++, pH7.4) bottle to F-head & E-head wash on Quattro • 4. Antibiotic: • a. Resuspend 5.6 mg amphotericin B (Sigma Aldrich, catalog number A2411) in 175 ul DMSO • b. Add the resulting solution to 50 ml internal buffer, mix and attach to antibiotic tubing port on Quattro • 5. Cells: • a. Use GIRK 1/4 HEK293 stable cells (obtained from ChanTest, 14656 Neo Parkway, Cleveland, Ohio 44128) grown to […] confluency in the following cell culture medium: DMEM containing 10% (v/v) Fetal Bovine Serum, Penicillin/Streptomycin (at “1×” concentration from a 100× stock), 0.5 mg/ml G418 and 0.1 mg/ml Zeocin. • b. Wash cells with PBS (minus Ca^++ and Mg^++), Detach cells using Detachin (Genlantis, 11011 Torreyana, San Diego, Calif. 92121), and resuspend in external buffer (5 ml final volume at 2.0-2.1×10^6 cells/ml) • c. Load into cell trough of Quattro • 6. Assay Protocol: • Quattro is controlled using IonWorks v2 software to perform the following steps: • a. Add 3.5 ul cells plus 3.5 ul external buffer to wells of Quattro Patch Plate • b. Circulate amphotericin B and internal buffer onto cells • c. Apply the following voltage protocol: Pulse 1: 15 mV for 300 milliseconds (ms), followed by Pulse 2: −120 mV for 400 ms, then Pulse 3: −15 mV for 400 ms, and finally Pulse 4: −120 mV to 40 mV over 500 ms (this is a voltage ramp). • d. Measure magnitude of inward potassium current at time point between 1200-1220 ms from start of Pulse 1 (i.e. during the voltage ramp phase). • e. Add 3.5 ul of diluted compounds (or DMSO) to wells and repeat steps c-d (final compound concentrations are 50 uM to 0.1 uM, for potent compounds 0.5 uM to 0.01 uM and each concentration is tested in quadruplicate—i.e. in 4 separate wells). • f. The difference between current magnitude pre vs. post-compound gives a measure of GIRK1/4 inhibition. • 7. Data analysis:
# IC50 values are calculated by plotting the percentage of current inhibition (normalized to the DMSO-only control) as a function of compound concentration using standard data analysis software.
# Sequence of GIRK1/4 (P48549 whole entry): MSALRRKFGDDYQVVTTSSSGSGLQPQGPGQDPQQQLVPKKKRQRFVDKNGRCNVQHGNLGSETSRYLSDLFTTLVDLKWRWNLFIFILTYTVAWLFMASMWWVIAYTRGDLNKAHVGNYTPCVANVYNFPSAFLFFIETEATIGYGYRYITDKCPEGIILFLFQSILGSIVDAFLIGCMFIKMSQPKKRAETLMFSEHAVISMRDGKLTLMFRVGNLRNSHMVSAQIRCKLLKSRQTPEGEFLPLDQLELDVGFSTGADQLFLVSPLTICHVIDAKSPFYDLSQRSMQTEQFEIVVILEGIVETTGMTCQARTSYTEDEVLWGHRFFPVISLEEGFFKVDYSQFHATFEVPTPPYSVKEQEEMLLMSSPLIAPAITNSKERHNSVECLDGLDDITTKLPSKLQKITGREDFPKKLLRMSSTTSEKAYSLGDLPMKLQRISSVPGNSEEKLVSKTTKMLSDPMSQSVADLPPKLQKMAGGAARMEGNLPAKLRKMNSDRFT
# Sequence of GIRK1/4 (P48544 whole entry): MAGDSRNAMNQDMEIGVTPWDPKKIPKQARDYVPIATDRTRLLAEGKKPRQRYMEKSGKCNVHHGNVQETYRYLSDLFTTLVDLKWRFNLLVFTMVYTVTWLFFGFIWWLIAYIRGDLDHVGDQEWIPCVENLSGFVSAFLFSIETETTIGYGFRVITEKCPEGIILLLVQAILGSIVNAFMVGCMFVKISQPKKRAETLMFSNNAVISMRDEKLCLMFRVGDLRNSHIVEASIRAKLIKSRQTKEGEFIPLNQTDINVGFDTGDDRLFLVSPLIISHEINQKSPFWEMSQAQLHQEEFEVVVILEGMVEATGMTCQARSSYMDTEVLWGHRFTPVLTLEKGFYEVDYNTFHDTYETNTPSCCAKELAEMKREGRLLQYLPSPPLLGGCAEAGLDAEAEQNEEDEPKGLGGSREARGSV
row,Compound,IC50 [nM]
1,"CS(=O)(=O)CCNc1ncc(Cl)c2c1c(=O)cc(CO)n2-c1c(Cl)cccc1Cl [Example 51, 8-chloro-1-(2,6-dichlorophenyl)-2-(hydroxymethyl)-5-((2-(methylsulfonyl)ethyl)amino)-1,6-naphthyridin-4(1H)-one]",41
2,"O=c1cc(CO)n(-c2c(Cl)cccc2Cl)c2c(Cl)cnc(OC[C@H](O)CO)c12 [Example 2, (R)-8-chloro-1-(2,6-dichlorophenyl)-5-(2,3-dihydroxypropoxy)-2-(hydroxymethyl)-1,6-naphthyridin-4(1H)-one]",159
3,"O=c1cc(CO)n(-c2c(Cl)cccc2Cl)c2c(Cl)cnc(CCCO)c12 [Example 74, 8-Chloro-1-(2,6-dichlorophenyl)-2-(hydroxymethyl)-5-(3-hydroxypropyl)-1,6-naphthyridin-4(1H)-one]",69
4,"Cc1cc(=O)c2c(NCCc3c[nH]cn3)cncc2n1-c1c(Cl)cc(C#N)cc1Cl [Example 56, 4-(5-((2-(1H-imidazol-4-yl)ethyl)amino)-2-methyl-4-oxo-1,7-naphthyridin-1(4H)-yl)-3,5-dichlorobenzontrile]",197
5,"O=c1cc(C(F)F)n(-c2c(Cl)cccc2Cl)c2c(Cl)cnc(OCC(O)CO)c12 (centres unmarked) [Example 62, 8-Chloro-1-(2,6-dichlorophenyl)-2-(difluoromethyl)-5-(2,3-dihydroxypropoxy)-1,6-naphthyridin-4(1H)-one]",13
6,"Cc1cc(=O)c2c(OCC(O)CO)ncc(Cl)c2n1-c1c(Cl)cc(C#CC(C)(C)N)cc1Cl (centres unmarked) [Example 90, 1-(4-(3-Amino-3-methylbut-1-yn-1-yl)-2,6-dichlorophenyl)-8-chloro-5-(2,3-dihydroxypropoxy)-2-methyl-1,6-naphthyridin-4(1H)-one]",327
7,"COc1cc2c(c(OCC(O)CO)n1)c(=O)cc(C)n2-c1c(Cl)cccc1Cl (centres unmarked) [Example 68, 1-(2,6-Dichlorophenyl)-5-(2,3-dihydroxpropoxy)-7-methoxy-2-methyl-1,6-naphthyridin-4(1H)-one]",234
8,"Cc1cc(=O)c2c(OCC(O)C(C)(C)O)ncc(Cl)c2n1-c1c(Cl)cccc1Cl (centres unmarked) [Example 40, 8-chloro-1-(2,6-chlorophenyl)-5-(2,3-dihydroxy-3-methylbutoxy)-2-methyl-1,6-naphthyridin-4(1H)-one]",13
9,"O=c1cc(CO)n(-c2c(Cl)cccc2Cl)c2c(Cl)cnc(NCCOCCOCCOCCO)c12 [Example 13, 8-chloro-1-(2,6-dichlorophenyl)-5-((2-(2-(2-(2-hydroxyethoxy)ethoxy)ethoxy)ethyl)amino)-2-(hydroxymethyl)-1,6-naphthyridin-4(1H)-one]",71
10,"Cc1cc(=O)c2c(OCCOCCOCCOCCO)ncc(Cl)c2n1-c1c(Cl)cccc1Cl [Example 30, 8-chloro-1-(2,6-dichlorophenyl)-5-(2-(2-(2-(2-hydroxyethoxy)ethoxy)ethoxy)ethoxy)-2-methyl-1,6-naphthyridin-4(1H)-one]",25
11,"Cc1cc(=O)c2c(OCC(O)CO)cncc2n1-c1c(Cl)cc(C#N)cc1Cl (centres unmarked) [Example 18, 3,5-dichloro-4-(5-(2,3-dihydroxypropoxy)-2-methyl-4-oxo-1,7-naphthyridin-1(4H)-yl)benzonitrile]",1860
12,"Cc1cc(=O)c2c(OCC(C)(C)O)ncc(Cl)c2n1-c1c(Cl)cccc1Cl [Example 42, 8-chloro-1-(2,6-dichlorophenyl)-5-(2-hydroxy-2-methylpropoxy)-2-methyl-1,6-naphthyridin-4(1H)-one]",15
13,"O=c1cc(CO)n(-c2c(Cl)cccc2Cl)c2c(Cl)cnc(OCC3(CO)COC3)c12 [Example 5, 8-chloro-1-(2,6-dichlorophenyl)-2-(hydroxymethyl)-5-((3-(hydroxymethyl)oxetan-3-yl)methoxy)-1,6-naphthyridin-4(1H)-one]",235
14,"Cc1cc(=O)c2c(N3CC(O)C3)cncc2n1-c1c(Cl)cc(C#N)cc1Cl [Example 29, 3,5-dichloro-4-(5-(3-hydroxyazetidin-1-yl)-2-methyl-4-oxo-1,7-naphthyridin-1(4H)-yl)benzonitrile]",505
15,"O=c1cc(CO)n(-c2c(Cl)cccc2Cl)c2c(Cl)cnc(C(O)CO)c12 (centres unmarked) [Example 82, 8-Chloro-1-(2,6-dichlorophenyl)-5-(1,2-dihydroxyethyl)-2-(hydroxymethyl)-1,6-naphthyridin-4(1H)-one]",147
16,"Cc1cc(=O)c2c(OCC(O)CO)ncc(Cl)c2n1-c1c(Cl)cccc1C#N (centres unmarked) [Example 34, 3-chloro-2-(8-chloro-5-(2,3-dihydroxypropoxy)-2-methyl-4-oxo-1,6-naphthyridin-1(4H)-yl)benzonitrile]",240
17,"Cc1cc(=O)c2c(OCC(O)C(O)CO)ncc(Cl)c2n1-c1c(Cl)cccc1Cl (centres unmarked) [Example 26, 8-chloro-1-(2,6-dichlorophenyl)-2-methyl-5-(2,3,4-trihydroxybutoxy)-1,6-naphthyridin-4(1H)-one]",31
18,"COCCOCCOCCOCCOCCOCCOc1ncc(Cl)c2c1c(=O)cc(C)n2-c1c(Cl)cccc1Cl [Example 15, 5-(2,5,8,11,14,17-hexaoxanonadecan-19-yloxy)-8-chloro-1-(2,6-dichlorophenyl)-2-methyl-1,6-naphthyridin-4(1H)-one]",25
19,"Cc1cc(=O)c2c(N3CCN(CCO)CC3)ncc(Cl)c2n1-c1c(Cl)cc(C#N)cc1Cl [Example 25, 3,5-dichloro-4-(8-chloro-5-(4-(2-hydroxyethyl)piperazin-1-yl)-2-methyl-4-oxo-1,6-naphthyridin-1(4H)-yl)benzonitrile]",146
20,"Cc1cc(=O)c2c(N3C[C@@H](O)[C@@H](O)C3)ncc(Cl)c2n1-c1c(Cl)cccc1Cl [Example 33, 8-chloro-1-(2,6-dichlorophenyl)-5-((3R,4S)-3,4-dihydroxypyrrolidin-1-yl)-2-methyl-1,6-naphthyridin-4(1H)-one]",100
21,"O=c1cc(CO)n(-c2c(Cl)cccc2Cl)c2c(Cl)cnc(COCC(O)CO)c12 (centres unmarked) [Example 87, 8-Chloro-1-(2,6-dichlorophenyl)-5-((2,3-dihydroxypropoxy)methyl)-2-(hydroxymethyl)-1,6-naphthyridin-4(1H)-one]",2260
22,"CC1(C)OCC(COc2ncc(Cl)c3c2c(=O)cc(CO)n3-c2c(Cl)cccc2Cl)O1 (centres unmarked) [Example 57, 8-chloro-1-(2,6-dichlorophenyl)-5-((2,2-dimethyl-1,3-dioxolan-4-yl)methoxy)-2-(hydroxymethyl)-1,6-naphthyridin-4(1H)-one]",32
23,"Cc1cc(=O)c2c(NCCOCCOCCOCCO)ncc(Cl)c2n1-c1c(Cl)cccc1C#N [Example 16, 3-chloro-2-(8-chloro-5-((2-(2-(2-(2-hydroxyethoxy)ethoxy)ethoxy)ethyl)amino)-2-methyl-4-oxo-1,6-naphthyridin-1(4H)-yl)benzonitrile]",176
24,"Cc1cc(=O)c2c(OCC(O)CO)ncc(C3CC3)c2n1-c1c(Cl)cccc1Cl (centres unmarked) [Example 52, 8-cyclopropyl-1-(2,6-dichlorophenyl)-5-(2,3-dihydroxypropoxy)-2-methyl-1,6-naphthyridin-4(1H)-one]",73
25,"Cc1cc(=O)c2c(OCC(O)COCC(O)CO)ncc(Cl)c2n1-c1c(Cl)cccc1Cl (centres unmarked) [Example 20, 8-chloro-1-(2,6-dichlorophenyl)-5-(3-(2,3-dihydroxypropoxy)-2-hydroxypropoxy)-2-methyl-1,6-naphthyridin-4(1H)-one]",173
26,"COCCOCCOc1ncc(Cl)c2c1c(=O)cc(CO)n2-c1c(Cl)cccc1Cl [Example 11, 8-chloro-1-(2,6-dichlorophenyl)-2-(hydroxymethyl)-5-(2-(2-methoxyethoxy)ethoxy)-1,6-naphthyridin-4(1H)-one]",73
